Experimental data reported in the supplement of paper PMC11208160.

test: recombinant UMI read abundance after kanamycin selection (control-corrected) (log10(CPM+1)); higher = more efficient recombination; extreme values may be limits of the assay; sequences stand for … in AGTGCAGAGAAAATCGGCCAGTTTTCTCTGCCTGCAGTCCGCATGCCGTGGGACCCCTTGGGTTCTAACCTGTTGCCTAGATTTATGCAGCGGACTGCCTTTCTCCCAAAGTGATAAACCGG…AGGTTGGTTTCACT; site = the 11-nt donor
Outline: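 After plating on IPTG (0.07 mM) plus kanamycin, or unselected, in two replicates, recombinant UMIs were PCR-amplified across the donor–target junction and sequenced. The cells were Escherichia coli co-electroporated with a UMI-tagged donor and donor-binding-loop pair library and a target plasmid with a fixed target and T7-inducible IS621 bridge recombinase. Values are log10(CPM+1), with CPM averaged over replicates and scaled by control-derived factors.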

Row | Sequence | recombinant UMI read abundance (log10)
1 | GTCATATCATGGACCGGTTTTCCCGGTAATCCGTATTTGTG (site GTCATATCTCA) | 2.31
2 | GTCCATGCATGGACCGGTTTTCCCGGTAATCCGTATTTGGT (site GTACATGCTAC) | 0.0101
3 | GTCCATGCATGGACCGGTTTTCCCGGTAATCCGTATTTGGT (site GTCCATGCTAC) | 0.891
4 | GTCCATGCATGGACCGGTTTTCCCGGTAATCCGTATTTGGT (site GTGCATGCTAC) | 0.0138
5 | GTCCATGCATGGACCGGTTTTCCCGGTAATCCGTATTTGGT (site GTTCATGCTAC) | 0.00783
6 | GTCCCCACATGGACCGGTTTTCCCGGTAATCCGTATTTGCC (site GTCCCCACTGG) | 2.05
7 | GTCCCGACATGGACCGGTTTTCCCGGTAATCCGTATTTGCA (site GTCCCGACTTG) | 1.54
8 | GTCGAATCATGGACCGGTTTTCCCGGTAATCCGTATTTGTT (site GTCGAATCTAA) | 2.52
9 | GTCGAGGCATGGACCGGTTTTCCCGGTAATCCGTATTTGTG (site GTAGAGGCTCA) | 0.867
10 | GTCGAGGCATGGACCGGTTTTCCCGGTAATCCGTATTTGTG (site GTCGAGGCTCA) | 0.765
11 | GTCGAGGCATGGACCGGTTTTCCCGGTAATCCGTATTTGTG (site GTGGAGGCTCA) | 0.0124
12 | GTCGAGGCATGGACCGGTTTTCCCGGTAATCCGTATTTGTG (site GTTGAGGCTCA) | 0.0142
13 | GTCGCATCATGGACCGGTTTTCCCGGTAATCCGTATTTGGA (site GTCGCATCTTC) | 2.05
14 | GTCGCTCCATGGACCGGTTTTCCCGGTAATCCGTATTTGGG (site GTCGCTCCTCC) | 0.0316
15 | GTCGGTCCATGGACCGGTTTTCCCGGTAATCCGTATTTGAA (site GTCGGTCCTTT) | 0.0112
16 | GTCTGAGCATGGACCGGTTTTCCCGGTAATCCGTATTTGGA (site GTCTGAGCTTC) | 0.754
17 | GTGAAGCCATGGACCGGTTTTCCCGGTAATCCGTATTTGGG (site GAGAAGCCTCC) | 0.0044
18 | GTGAAGCCATGGACCGGTTTTCCCGGTAATCCGTATTTGGG (site GCGAAGCCTCC) | 0.0113
19 | GTGAAGCCATGGACCGGTTTTCCCGGTAATCCGTATTTGGG (site GGGAAGCCTCC) | 0.00817
20 | GTGAAGCCATGGACCGGTTTTCCCGGTAATCCGTATTTGGG (site GTGAAGCCTCC) | 0.00505
21 | GTGAAGGCATGGACCGGTTTTCCCGGTAATCCGTATTTGTG (site GTGAAGGCTCA) | 2.12
22 | GTGAAGGCATGGACCGGTTTTCCCGGTAATCCGTATTTGTG (site GTGCAGGCTCA) | 0.498
23 | GTGAAGGCATGGACCGGTTTTCCCGGTAATCCGTATTTGTG (site GTGGAGGCTCA) | 1.02
24 | GTGAAGGCATGGACCGGTTTTCCCGGTAATCCGTATTTGTG (site GTGTAGGCTCA) | 0.977
25 | GTGAATGCATGGACCGGTTTTCCCGGTAATCCGTATTTGGT (site GTGAATGCTAC) | 2.73

Row | Sequence | recombinant UMI read abundance (log10)
26 | GTGAATGCATGGACCGGTTTTCCCGGTAATCCGTATTTGGT (site GTGCATGCTAC) | 0.318
27 | GTGAATGCATGGACCGGTTTTCCCGGTAATCCGTATTTGGT (site GTGGATGCTAC) | 1.94
28 | GTGAATGCATGGACCGGTTTTCCCGGTAATCCGTATTTGGT (site GTGTATGCTAC) | 1.4
29 | GTGACGCCATGGACCGGTTTTCCCGGTAATCCGTATTTGTG (site GTGACGCCTCA) | 0
30 | GTGAGTACATGGACCGGTTTTCCCGGTAATCCGTATTTGAG (site GTGAGTACTCT) | 1.75
31 | GTGAGTGCATGGACCGGTTTTCCCGGTAATCCGTATTTGAG (site GTGAGTGCTCT) | 2.12
32 | GTGATAACATGGACCGGTTTTCCCGGTAATCCGTATTTGGC (site GTGATAACTGC) | 2.59
33 | GTGATGACATGGACCGGTTTTCCCGGTAATCCGTATTTGGC (site GTGATGACTGC) | 2.09
34 | GTGATGCCATGGACCGGTTTTCCCGGTAATCCGTATTTGAT (site GTGATGCCTAT) | 1.41
35 | GTGATGTCATGGACCGGTTTTCCCGGTAATCCGTATTTGGA (site GTGATGTCTTC) | 2.57
36 | GTGCACGCATGGACCGGTTTTCCCGGTAATCCGTATTTGGT (site GTGCAAGCTAC) | 0.553
37 | GTGCACGCATGGACCGGTTTTCCCGGTAATCCGTATTTGGT (site GTGCACGCTAC) | 1.75
38 | GTGCACGCATGGACCGGTTTTCCCGGTAATCCGTATTTGGT (site GTGCAGGCTAC) | 0.00611
39 | GTGCACGCATGGACCGGTTTTCCCGGTAATCCGTATTTGGT (site GTGCATGCTAC) | 0.0143
40 | GTGCGAGCATGGACCGGTTTTCCCGGTAATCCGTATTTGCA (site GTACGAGCTTG) | 2.68
41 | GTGCGAGCATGGACCGGTTTTCCCGGTAATCCGTATTTGCA (site GTCCGAGCTTG) | 0.724
42 | GTGCGAGCATGGACCGGTTTTCCCGGTAATCCGTATTTGCA (site GTGCGAGCTTG) | 2.81
43 | GTGCGAGCATGGACCGGTTTTCCCGGTAATCCGTATTTGCA (site GTTCGAGCTTG) | 1.48
44 | GTGCGTACATGGACCGGTTTTCCCGGTAATCCGTATTTGCT (site GTGCGTACTAG) | 2.23
45 | GTGCGTCCATGGACCGGTTTTCCCGGTAATCCGTATTTGTG (site GTGCGTCCTCA) | 0.0594
46 | GTGCTACCATGGACCGGTTTTCCCGGTAATCCGTATTTGGG (site GTGCTACCTCC) | 0.0107
47 | GTGGAAGCATGGACCGGTTTTCCCGGTAATCCGTATTTGAA (site GTGGAAGCTTT) | 2.55
48 | GTGGAGTCATGGACCGGTTTTCCCGGTAATCCGTATTTGTG (site GTGGAGACTCA) | 1.34
49 | GTGGAGTCATGGACCGGTTTTCCCGGTAATCCGTATTTGTG (site GTGGAGCCTCA) | 0.572
50 | GTGGAGTCATGGACCGGTTTTCCCGGTAATCCGTATTTGTG (site GTGGAGGCTCA) | 0.00513

Row | Sequence | recombinant UMI read abundance (log10)
51 | GTGGAGTCATGGACCGGTTTTCCCGGTAATCCGTATTTGTG (site GTGGAGTCTCA) | 2.76
52 | GTGGCAACATGGACCGGTTTTCCCGGTAATCCGTATTTGCG (site GTGGCAACTCG) | 1.03
53 | GTGGCAACATGGACCGGTTTTCCCGGTAATCCGTATTTGTA (site GTGGCAACTTA) | 0.85
54 | GTGGGCCCATGGACCGGTTTTCCCGGTAATCCGTATTTGTC (site GTGGGCCCTGA) | 0.429
55 | GTGGGCGCATGGACCGGTTTTCCCGGTAATCCGTATTTGGG (site GTGGGCGCTCC) | 0.22
56 | GTGTACCCATGGACCGGTTTTCCCGGTAATCCGTATTTGGC (site GTGTACCCTGC) | 0.705
57 | GTGTACGCATGGACCGGTTTTCCCGGTAATCCGTATTTGTC (site GTGTACGCTGA) | 2.81
58 | GTGTTGACATGGACCGGTTTTCCCGGTAATCCGTATTTGTG (site GTGTTGACTCA) | 1.33
59 | GTTAAAGCATGGACCGGTTTTCCCGGTAATCCGTATTTGTA (site GTTAAAGCTTA) | 2.59
60 | GTTAACGCATGGACCGGTTTTCCCGGTAATCCGTATTTGGA (site GTTAACGCTTC) | 0.944
61 | GTTACAACATGGACCGGTTTTCCCGGTAATCCGTATTTGAT (site GTTACAACTAT) | 0.492
62 | GTTACGTCATGGACCGGTTTTCCCGGTAATCCGTATTTGTT (site GATACGTCTAA) | 0.0159
63 | GTTACGTCATGGACCGGTTTTCCCGGTAATCCGTATTTGTT (site GCTACGTCTAA) | 0.00335
64 | GTTACGTCATGGACCGGTTTTCCCGGTAATCCGTATTTGTT (site GGTACGTCTAA) | 0.00806
65 | GTTACGTCATGGACCGGTTTTCCCGGTAATCCGTATTTGTT (site GTTACGTCTAA) | 0.504
66 | GTTAGAACATGGACCGGTTTTCCCGGTAATCCGTATTTGGC (site ATTAGAACTGC) | 0
67 | GTTAGAACATGGACCGGTTTTCCCGGTAATCCGTATTTGGC (site CTTAGAACTGC) | 0
68 | GTTAGAACATGGACCGGTTTTCCCGGTAATCCGTATTTGGC (site GATAGAACTGC) | 0
69 | GTTAGAACATGGACCGGTTTTCCCGGTAATCCGTATTTGGC (site GCTAGAACTGC) | 0
70 | GTTAGAACATGGACCGGTTTTCCCGGTAATCCGTATTTGGC (site GGTAGAACTGC) | 0
71 | GTTAGAACATGGACCGGTTTTCCCGGTAATCCGTATTTGGC (site GTAAGAACTGC) | 0
72 | GTTAGAACATGGACCGGTTTTCCCGGTAATCCGTATTTGGC (site GTCAGAACTGC) | 0
73 | GTTAGAACATGGACCGGTTTTCCCGGTAATCCGTATTTGGC (site GTGAGAACTGC) | 0
74 | GTTAGAACATGGACCGGTTTTCCCGGTAATCCGTATTTGGC (site GTTAAAACTGC) | 0
75 | GTTAGAACATGGACCGGTTTTCCCGGTAATCCGTATTTGGC (site GTTACAACTGC) | 0
